Molecular target: Non-receptor tyrosine-protein kinase TYK2 (Homo sapiens, UniProt P29597)
Assay: TYK2 JH2 Domain Binding Assay: Binding constants for compounds of the present invention against the JH2 domain were determined by the following protocol for a KINOMEscan® assay (DiscoveRx). A fusion protein of a partial length construct of human TYK2 (JH2domain-pseudokinase) (amino acids G556 to D888 based on reference sequence NP_003322.3) and the DNA binding domain of NFkB was expressed in transiently transfected HEK293 cells. From these HEK 293 cells, extracts were prepared in M-PER extraction buffer (Pierce) in the presence of Protease Inhibitor Cocktail Complete (Roche) and Phosphatase Inhibitor Cocktail Set II (Merck) per manufacturers' instructions. The TYK2 (JH2domain-pseudokinase) fusion protein was labeled with a chimeric double-stranded DNA tag containing the NFkB binding site (5′-GGGAATTCCC-3′ (SEQ ID NO: 1)) fused to an amplicon for qPCR readout, which was added directly to the expression extract (the final concentration of DNA-tag in the binding reaction is 0.1 nM).Streptavidin-coated magnetic beads (Dynal M280) were treated with a biotinylated small molecule ligand for 30 minutes at room temperature to generate affinity resins the binding assays. […]
Format: cell-based

Sequence of Non-receptor tyrosine-protein kinase TYK2 (P29597 whole entry, the tested form may be a part): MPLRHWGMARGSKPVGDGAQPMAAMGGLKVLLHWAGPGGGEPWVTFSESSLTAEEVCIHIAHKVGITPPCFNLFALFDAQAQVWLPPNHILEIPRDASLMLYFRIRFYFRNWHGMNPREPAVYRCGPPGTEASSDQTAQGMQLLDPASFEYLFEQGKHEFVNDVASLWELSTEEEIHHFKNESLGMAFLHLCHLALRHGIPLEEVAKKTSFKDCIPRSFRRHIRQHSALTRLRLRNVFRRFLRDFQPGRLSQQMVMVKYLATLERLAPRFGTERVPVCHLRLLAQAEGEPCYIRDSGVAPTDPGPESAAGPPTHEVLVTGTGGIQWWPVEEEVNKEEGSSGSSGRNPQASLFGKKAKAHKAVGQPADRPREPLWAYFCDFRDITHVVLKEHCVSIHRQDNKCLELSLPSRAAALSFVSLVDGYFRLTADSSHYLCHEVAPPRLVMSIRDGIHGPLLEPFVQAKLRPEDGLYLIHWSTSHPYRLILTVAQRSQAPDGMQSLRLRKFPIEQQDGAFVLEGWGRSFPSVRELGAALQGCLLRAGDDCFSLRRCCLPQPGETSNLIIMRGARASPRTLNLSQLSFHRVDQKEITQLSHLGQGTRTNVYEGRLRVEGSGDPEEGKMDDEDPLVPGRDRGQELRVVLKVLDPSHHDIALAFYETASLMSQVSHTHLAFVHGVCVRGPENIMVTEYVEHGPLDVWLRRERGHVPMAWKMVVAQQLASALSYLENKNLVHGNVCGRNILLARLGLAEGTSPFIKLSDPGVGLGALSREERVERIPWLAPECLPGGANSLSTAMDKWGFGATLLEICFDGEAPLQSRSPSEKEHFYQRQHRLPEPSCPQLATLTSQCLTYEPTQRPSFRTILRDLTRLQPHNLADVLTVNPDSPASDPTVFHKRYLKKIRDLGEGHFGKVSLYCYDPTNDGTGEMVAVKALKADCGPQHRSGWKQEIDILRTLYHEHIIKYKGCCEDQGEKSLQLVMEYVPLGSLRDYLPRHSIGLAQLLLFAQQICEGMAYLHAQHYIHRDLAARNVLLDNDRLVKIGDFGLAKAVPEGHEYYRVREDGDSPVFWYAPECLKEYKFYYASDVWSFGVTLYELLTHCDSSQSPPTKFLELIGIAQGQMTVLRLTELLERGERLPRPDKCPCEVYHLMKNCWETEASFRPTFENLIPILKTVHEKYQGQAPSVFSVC

- Kd: > 0.01 µM
Structure (SMILES): COc1cc(Cl)ccc1Nc1cc(Nc2cc(C)ccn2)nc2[nH]n(C)c(=O)c12

— ChEMBL document CHEMBL5727115, “TYK2 inhibitors and uses thereof” (2019)
